Assay results from PMC8880588, “In-Silico Screening of Novel Synthesized Thienopyrimidines Targeting Fms Related Receptor Tyrosine Kinase-3 and Their In-Vitro Biological Evaluation” (Pharmaceuticals, 2022).

How the values were obtained:
MCF-7 = experiment: MTT dose-response anti-proliferative assay, MCF-7; format: cell-based, human
From the text: (§1) Doxorubicin was used as a positive reference for the comparison of anticancer activities. The results are tabulated as IC50 value in the μM range, Table 1.
(§2) Three cancer cell lines were used in the antiproliferative activities experiments, namely, breast cancer cell line (MCF-7) and human hepatoma cell line (HepG-2), and Colorectal cell line (HT-29). The source of cell lines is the health sciences research center-core lab- at princess Nou-rah bint Abdulrahman university. All cell lines were maintained in their optimum media (RPMI-1640 or DMEM) supplemented with 10% fetal bovine serum, 100 U/mL penicillin, and 100 μg/mL streptomycin and incubated in a humidified atmosphere at 37 °C with 5% CO2.
(§3) The MTT assay was used to evaluate the anti-proliferative effect of the synthesized compounds against three human cancer cell lines hepatocellular carcinoma (HepG-2), breast cancer (MCF-7) and Colorectal carcinoma (HT-29). For the preliminary screening, HT-29 cells were seeded in 96-well plates (Thermo Scientific, Waltham, MA, USA)(10^3 cells/well) and incubated for 24 h before the treatment. Then, cells were treated with two concentrations (10 and 100 µM) of the tested compounds for 72 h. After the exposure, MTT assay protocol was performed as described. After evaluation of the preliminary anticancer activity, the promising synthesized compounds (8, 9a, 9b, 10a, and 11) were selected and examined against three cell lines (HepG-2, MCF-7, and HT-29). Cells were exposed to serial concentration ([…]) of the selected compounds and dose–response curves were determined to calculate their IC50 values.

HT-29 = experiment: MTT dose-response anti-proliferative assay, HT-29; format: cell-based; details: Homo sapiens; HT-29, MTT
From the text: as §1, §2, §3

HT-29 cells = experiment: Preliminary antiproliferative assessment (MTT) at 10 and 100 μM; format: cell-based, human; details: for growth inhibitory activities against HT-29 cells (preliminary assay): 10 and 100 μM, 72 h; for cytotoxic profile: result in words
Protocol: All synthesized compounds were subjected to preliminary antiproliferative assessment that was performed on HT-29 cells using concentrations 10 and 100 μM of synthesized compounds for 72 h and the percentage of cell viability was then calculated. […] Thus, all five compounds were further studied by a detailed dose–response relationship against three different cancerous cell lines HT-29, Hep-G2 and MCF-7.
as §2, §3

[1] = test system: protein kinases extracted from HT-29 cell line; experiment: Kinase inhibition assessment, single dose, ADP-Glo assay; format: biochemical, human; details: 20 μM single dose, total intracellular kinases from HT-29, 45 min
Protocol: Inhibitory activity against kinases of the selected compounds was examined using homogeneous protein kinases extracted from HT-29 cell line. The screening assay was performed in a single dose concentration (20 μM) by using ADP-Glo assay (Promega, Madison, WI, USA).
Briefly, protein kinases were added into a 96-well plate followed by addition of the synthesized compounds at the tested dose (20 μM). After 45 min of exposure, kinase activity was assessed using a luminescent luciferase/luciferin reaction. Luminescence quantification was measured by using a Varioskan™ LUX multimode microplate reader (Thermo Scientific, Waltham, MA, USA). Kinase inhibition effect of tested compounds was expressed as the percentage of remaining kinase activity relative to vehicle kinase reaction.

HepG-2 = experiment: MTT dose-response anti-proliferative assay, HepG-2; format: cell-based; details: Homo sapiens, HepG2; HepG-2, MTT
From the text: as §1, §2, §3

[2] = test system: normal colon epithelial cells (CCD 841 CoN); experiment: Selectivity assay (MTT) on non-cancerous cells; format: cell-based; details: for IC50: Homo sapiens, CCD 841 CoN, 72 h, MTT, read-out: IC50 of Non-Cancer Cells CCD 841; for Selectivity Index (SI) (IC50 of CCD 841/IC50 of HT29): ratio normal CCD 841 / cancer HT-29, 72 h
Protocol: In an attempt to evaluate the anticancer activity of the compounds, selectivity assay was performed and compounds’ selectivity to malignant cells was determined, reflected by their selectivity index. The selectivity index (SI) was calculated by the ratio of the IC50 value of the selected compounds on normal colon epithelial cells (CCD 841 CoN) to the IC50 value of the compounds on cancer cells (HT-29). […] However, based on the designed strategy, this high selectivity towards cancer cells may be attributed to their ability to target oncogenic kinases.
Cells were plated in 96-well plates (10^3 cells/well), and after 24 h, the compounds in concentrations (0.1 to 100 μM) were incubated for 72 h. MTT procedure was then performed, the ratio of IC50 values of the compounds on non-cancerous cells (CCD 841 CoN) to the IC50 values of the compounds on cancer cells (HT-29) was determined as reported, [23, 24] using the following equation, SI = IC50 of normal cells/IC50 of cancer cells.

FLT3 = molecular target: T1, FLT3 (Homo sapiens, UniProt P36888); experiment: In-vitro FLT3 kinase enzyme inhibition assay (FLT3 Kinase Assay Kit); format: biochemical; details: FLT3 1.5 ng/µL, 45 min, mean ± SD, n = 3; read-out: FLT3 kinase inhibitory activity IC50
T1 construct: purchased BD Biosciences, San Diego, CA, USA
T1 sequence (P36888 27-993): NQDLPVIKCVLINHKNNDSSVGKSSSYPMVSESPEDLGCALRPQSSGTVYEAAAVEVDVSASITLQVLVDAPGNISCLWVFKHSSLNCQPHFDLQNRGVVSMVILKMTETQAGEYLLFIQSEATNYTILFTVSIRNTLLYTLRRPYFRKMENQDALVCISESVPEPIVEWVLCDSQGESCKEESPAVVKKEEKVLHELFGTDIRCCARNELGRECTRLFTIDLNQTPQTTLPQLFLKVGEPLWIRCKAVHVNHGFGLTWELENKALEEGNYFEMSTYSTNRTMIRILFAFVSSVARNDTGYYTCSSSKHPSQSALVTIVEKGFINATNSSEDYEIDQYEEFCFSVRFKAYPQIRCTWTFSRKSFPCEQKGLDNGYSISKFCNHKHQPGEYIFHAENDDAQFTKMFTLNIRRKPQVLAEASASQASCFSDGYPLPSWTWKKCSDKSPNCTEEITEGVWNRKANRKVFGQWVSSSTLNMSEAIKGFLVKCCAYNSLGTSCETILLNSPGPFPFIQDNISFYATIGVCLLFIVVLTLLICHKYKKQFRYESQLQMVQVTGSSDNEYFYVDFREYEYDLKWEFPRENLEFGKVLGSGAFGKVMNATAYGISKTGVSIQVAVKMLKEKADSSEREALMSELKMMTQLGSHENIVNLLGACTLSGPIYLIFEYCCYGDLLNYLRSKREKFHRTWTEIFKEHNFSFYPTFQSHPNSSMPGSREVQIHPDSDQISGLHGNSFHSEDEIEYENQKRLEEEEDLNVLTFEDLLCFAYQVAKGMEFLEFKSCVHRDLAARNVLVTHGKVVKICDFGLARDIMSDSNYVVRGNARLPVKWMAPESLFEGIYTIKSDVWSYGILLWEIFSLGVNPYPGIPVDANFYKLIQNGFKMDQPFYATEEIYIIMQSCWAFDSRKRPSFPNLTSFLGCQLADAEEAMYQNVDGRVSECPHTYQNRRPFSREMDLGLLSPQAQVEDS
Protocol: FLT3 Kinase Assay Kit (BD Biosciences, San Diego, CA, USA) was used to determine the inhibitory selectivity of the selected compounds towards the FLT3 enzyme. briefly, serial dilution of the selected compounds was incubated with FLT3 (1.5 ng/µL) for 45 min in a kinase reaction buffer. The FLT3 enzyme reaction was halted and measured by quantifying the amount of ADP produced during the enzyme reaction. Luminescence values were measured by a Varioskan™ LUX multimode microplate reader (Thermo Scientific, Waltham, MA, USA). IC50 was calculated with nonlinear regression compared with untreated reaction using Prism version 8.4.3 (GraphPad).

SMILES	IC50 (MCF-7; Homo sapiens, MCF7, MCF-7, MTT) [µM]	IC50 (HT-29) [µM]	melting point [°C]	IC50 (FLT3) [µM]	IC50 (MCF-7; MCF-7, MTT) [µM]	growth inhibitory activities against HT-29 cells (preliminary assay) (HT-29 cells)	kinase inhibition [1] [%]	IC50 (HepG-2) [µM]	IC50 [2] [µM]	Selectivity Index (SI) (IC50 of CCD 841/IC50 of HT29) [2]	growth inhibition at concentration 100 µM (HT-29 cells; 100 µM, preliminary assay)	cytotoxic profile (HT-29 cells)
Cc1nc2sc3c(c2c(=O)n1NC(=O)CCl)CCCC3 [Compound 8, 2-Chloro-N-(2-methyl-4-oxo-5,6,7,8-tetrahydrobenzo[4,5]thieno[2,3-d]pyrimidin-3(4H)-yl)acetamide]	11 ± 0.8	2 ± 0.62				moderate to significant	49.6	13.5 ± 2.7	151 ± 20.2	75.5		
Nn1c(Nc2ccccc2)nc2sc3c(c2c1=O)CCCC3 [Compound 12, 3-Amino-2-phenylamino-5,6,7,8-tetrahydrobenzo[4,5]thieno[2,3-d]pyrimidin-4(3H)-one]			198 to 200	27.2 ± 5.6			65.3					
Cc1nc2sc3c(c2c(=O)n1NC(=S)Nc1ccccc1)CCCC3 [Compound 5, 1-(2-Methyl-4-oxo-5,6,7,8-tetrahydrobenzo[4,5]thieno[2,3-d]pyrimidin-3(4H)-yl)-3-phenylthiourea]			138 to 140									
CC1=CC(=O)N(n2c(C)nc3sc4c(c3c2=O)CCCC4)C1=O [Compound 4, 3-Methyl-1-(2-methyl-4-oxo-5,6,7,8-tetrahydrobenzo[4,5]thieno[2,3-d]pyrimidin-3(4H)-yl)-1H-pyrrole-2,5-dione]			125 to 127								weak growth inhibition	
Cc1nc2sc3c(c2c(=O)n1N1C(=O)CN(c2ccccc2)C1=S)CCCC3 [Compound 6, 2-Methyl-3-(5-oxo-3-phenyl-2-thioxoimidazolidin-1-yl)-5,6,7,8-tetrahydrobenzo[4,5]thieno[2,3-d]pyrimidin-4(3H)-one]			198 to 200									
CCOC(=O)c1c(NC(=S)Nc2ccccc2)sc2c1CCCC2 [Compound 11, Ethyl-2-(3-phenylthioureido)-5,6,7,8-tetrahydrobenzo[b]thiophene-3-carboxylate]	7.53 ± 0.07	1.78 ± 0.6	170 to 172	40 ± 5.5	7.537 ± 0.07	moderate to significant	79.2	16.4 ± 5.7	178 ± 20.4	99.7		
COc1cccc2c1C(=O)c1c(O)c3c(c(O)c1C2=O)C[C@@](O)(C(=O)CO)C[C@@H]3O[C@H]1C[C@H](N)[C@H](O)[C@H](C)O1 [Dox, Doxorubicin, reference compound]	8.43 ± 0.5	1.4 ± 1.16						13.9 ± 2.2				

Now from value to compound, other results behind:

IC50 (MCF-7; Homo sapiens, MCF7, MCF-7, MTT) [µM]	IC50 (HT-29) [µM]	melting point [°C]	IC50 (FLT3) [µM]	IC50 (MCF-7; MCF-7, MTT) [µM]	SMILES	growth inhibitory activities against HT-29 cells (preliminary assay) (HT-29 cells)	kinase inhibition [1] [%]	IC50 (HepG-2) [µM]	IC50 [2] [µM]	Selectivity Index (SI) (IC50 of CCD 841/IC50 of HT29) [2]	growth inhibition at concentration 100 µM (HT-29 cells; 100 µM, preliminary assay)	cytotoxic profile (HT-29 cells)
16.3 ± 2.3	0.85 ± 0.16	98 to 100	47.6 ± 9.3		Cc1nc2sc3c(c2c(=O)n1NC(=O)CNc1cc(C(C)(C)C)on1)CCCC3 [Compound 9b, 2-(5-Tert-butylisoxazol-3-ylamino)-N-(2-methyl-4-oxo-5,6,7,8-tetrahydrobenzo[4,5]thieno[2,3-d]pyrimidin-3(4H)-yl)acetamide]	moderate to significant	13.05	9.11 ± 0.3	17.2 ± 1.4	20.2		
		120 to 122			Cc1nc2sc3c(c2c(=O)n1NCC(=O)Nc1cc(C(C)(C)C)no1)CCCC3 [Compound 7a, 2-(2-Methyl-4-oxo-5,6,7,8-tetrahydrobenzo[4,5]thieno[2,3-d]pyrimidin-3(4H)-ylamino)-N-(3-tert-butylisoxazol-5-yl)acetamide]							
		187 to 189			Cc1nc2sc3c(c2c(=O)n1NC(=O)CN1CCN(C)CC1)CCCC3 [Compound 10b, N-(2-methyl-4-oxo-5,6,7,8-tetrahydrobenzo[4,5]thieno[2,3-d]pyrimidin-3(4H)-yl)-2-(4-methylpiperazin-1-yl)acetamide]							weak cytotoxic profile
		128 to 130			Cc1nc2sc3c(c2c(=O)n1NCC(=O)Nc1cc(C(C)(C)C)on1)CCCC3 [Compound 7b, 2-(2-Methyl-4-oxo-5,6,7,8-tetrahydrobenzo[4,5]thieno[2,3-d]pyrimidin-3(4H)-ylamino)-N-(5-tert-butylisoxazol-3-yl)acetamide]							
105 ± 36.4	167 ± 8.15	222 to 225	17.8 ± 3.8		Cc1nc2sc3c(c2c(=O)n1NC(=O)CN1CCOCC1)CCCC3 [Compound 10a, N-(2-methyl-4-oxo-5,6,7,8-tetrahydrobenzo[4,5]thieno[2,3-d]pyrimidin-3(4H)-yl)-2-morpholinoacetamide]	moderate to significant	75.1	188 ± 28.2				weak cytotoxic profile
7.2 ± 1.9	1.21 ± 0.34	89 to 92	20.4 ± 2.8		Cc1nc2sc3c(c2c(=O)n1NC(=O)CNc1cc(C(C)(C)C)no1)CCCC3 [Compound 9a, 2-(3-Tert-butylisoxazol-5-ylamino)-N-(2-methyl-4-oxo-5,6,7,8-tetrahydrobenzo[4,5]thieno[2,3-d]pyrimidin-3(4H)-yl)acetamide]	moderate to significant		6.62 ± 0.7	11.3 ± 5.6	9.4		
